# Results taken from patent publication US20260285850A1, “SUBSTITUTED OXAZOLIDINONES AND IMIDAZOLINONES AS HERBICIDES” (FMC CORPORATION, priority 2023, published 2026).
# What was measured:
# Format in all cases: in vivo
# rice (Oryza sativa) = test: Test B flooded paddy test, visual plant response rating 0-100; settings: 250 g ai/ha, Flood, applied to paddy water, evaluated after 13 days
# Method in brief: (§1)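 Visual evaluation after 13 days. Water-applied treatment, 3 cm flood depth held constant, plants at 2-leaf stage at treatment.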
# [1] = tested on: barnyardgrass (Echinochloa crusgalli); test: as above; settings: 250 g ai/ha, Flood, applied to paddy water, evaluated after 13 days
# Method in brief: as §1
# [2] = tested on: sedge, umbrella (small-flower umbrella sedge, Cyperus difformis); test: as above; settings: 250 g ai/ha, Flood, applied to paddy water, evaluated after 13 days
# Method in brief: as §1
# [3] = tested on: ducksalad (Heteranthera limosa); test: as above; settings: 250 g ai/ha, Flood, applied to paddy water, evaluated after 13 days
# Method in brief: as §1
# [4] = tested on: barnyardgrass (Echinochloa crus-galli); test: Test A postemergence application, visual injury rating 0-100
# Method in brief: (§2)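 Rating: visual, day 10, untreated plants as reference, 0 no effect to 100 full control. Plants were in loam-sand and were treated either preemergence via directed soil spray or postemergence at the one- to two-leaf stage.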
# corn (Zea mays) [5] = test: as above
# Method in brief: as §2
# kochia (Bassia scoparia) [6] = test: as above
# Method in brief: as §2
# [7] = tested on: oat, wild (wild oat, Avena fatua); test: as above
# Method in brief: as §2
# [8] = tested on: ragweed (common ragweed, Ambrosia artemisiifolia); test: as above
# Method in brief: as §2
# [9] = tested on: palmer (palmer amaranth, palmer pigweed, Amaranthus palmeri); test: as above
# Method in brief: as §2
# [10] = tested on: ryegrass, Italian (italian ryegrass, Lolium multiflorum); test: as above
# Method in brief: as §2
# [11] = tested on: wheat (Triticum aestivum); test: as above
# Method in brief: as §2
# [12] = tested on: green foxtail (Setaria viridis); test: as above
# Method in brief: as §2
# soybean (Glycine max) [13] = test: as above
# Method in brief: as §2
# [14] = tested on: blackgrass (Alopecurus myosuroides); test: as above
# Method in brief: as §2
# [15] = tested on: horseweed (Erigeron canadensis); test: as above
# Method in brief: as §2
# [16] = tested on: barnyardgrass (Echinochloa crus-galli); test: Test A preemergence soil spray, visual injury rating 0-100; settings: 10 days
# Method in brief: as §2
# corn (Zea mays) [17] = test: as above; settings: 10 days
# Method in brief: as §2
# kochia (Bassia scoparia) [18] = test: as above; settings: 10 days
# Method in brief: as §2
# [19] = tested on: oat, wild (wild oat, Avena fatua); test: as above; settings: 10 days
# Method in brief: as §2
# [20] = tested on: ragweed (common ragweed, Ambrosia artemisiifolia); test: as above; settings: 10 days
# Method in brief: as §2
# [21] = tested on: palmer (palmer amaranth, palmer pigweed, Amaranthus palmeri); test: as above; settings: 10 days
# Method in brief: as §2
# [22] = tested on: ryegrass, Italian (italian ryegrass, Lolium multiflorum); test: as above; settings: 10 days
# Method in brief: as §2
# [23] = tested on: wheat (Triticum aestivum); test: as above; settings: 10 days
# Method in brief: as §2
# [24] = tested on: green foxtail (Setaria viridis); test: as above; settings: 10 days
# Method in brief: as §2
# soybean (Glycine max) [25] = test: as above; settings: 10 days
# Method in brief: as §2
# [26] = tested on: blackgrass (Alopecurus myosuroides); test: as above; settings: 10 days
# Method in brief: as §2
# [27] = 62 g ai/ha, postemergence, 10 days, 0 = no effect, 100 = complete control
# [28] = Postemergence, 16 g ai/ha, greenhouse 10 days, 0 no effect, 100 complete control
# [29] = 62 g ai/ha, 0 = no effect, 100 = complete control
smiles,measurement,setting,value
COC(=O)COC(=O)C1=CCC(NC(=O)C2(C)CN(c3cc(Cl)cc(Cl)c3)C(=O)O2)C1 (centres unmarked) [Compound 110],"Plant response rating, Rice (0 to 100 scale, 0 is no effect and 100 is complete control)",rice (Oryza sativa),40
same,"Plant response rating, Barnyardgrass (0 to 100 scale, 0 is no effect and 100 is complete control)",[1],60
same,"Plant response rating, Sedge, Umbrella (0 to 100 scale, 0 is no effect and 100 is complete control)",[2],98
same,"Plant response rating, Ducksalad (0 to 100 scale, 0 is no effect and 100 is complete control)",[3],95
same,Barnyardgrass plant response rating (0-100),[4]; [27],100
same,Barnyardgrass plant response rating (0 to 100 scale),[4]; [28],90
same,Corn plant response rating (0-100),corn (Zea mays) [5]; [27],100
same,Corn plant response rating (0 to 100 scale),corn (Zea mays) [5]; [28],100
same,Kochia plant response rating (0-100),kochia (Bassia scoparia) [6]; [27],90
same,Kochia plant response rating (0 to 100 scale),kochia (Bassia scoparia) [6]; [28],90
same,"Oat, Wild plant response rating (0-100)",[7]; [27],30
same,"Oat, Wild plant response rating (0 to 100 scale)",[7]; [28],20
same,Ragweed plant response rating (0-100),[8]; [27],80
same,Ragweed plant response rating (0 to 100 scale),[8]; [28],50
same,"Pigweed, Palmer plant response rating (0-100)",[9]; [27],100
same,"Pigweed, Palmer plant response rating (0 to 100 scale)",[9]; [28],90
same,"Ryegrass, Italian plant response rating (0-100)",[10]; [27],70
same,"Ryegrass, Italian plant response rating (0 to 100 scale)",[10]; [28],50
same,Wheat plant response rating (0-100),[11]; [27],90
same,Wheat plant response rating (0 to 100 scale),[11]; [28],50
same,"Foxtail, Green plant response rating (0-100)",[12]; [27],90
same,"Foxtail, Green plant response rating (0 to 100 scale)",[12]; [28],90
same,Soybean plant response rating (0-100),soybean (Glycine max) [13]; [27],70
same,Soybean plant response rating (0 to 100 scale),soybean (Glycine max) [13]; [28],30
same,Blackgrass plant response rating (0-100),[14]; [27],100
same,Blackgrass plant response rating (0 to 100 scale),[14]; [28],80
same,Horseweed plant response rating (0-100),[15]; [27],80
same,Horseweed plant response rating (0 to 100 scale),[15]; [28],70
same,Barnyardgrass plant response rating,"[16]; 16 g ai/ha, 0 to 100 scale",50
same,Barnyardgrass plant response rating (0-100),[16]; [29],100
same,Corn plant response rating,"corn (Zea mays) [17]; 16 g ai/ha, 0 to 100 scale",0
same,Corn plant response rating (0-100),corn (Zea mays) [17]; [29],30
same,Kochia plant response rating,"kochia (Bassia scoparia) [18]; 16 g ai/ha, 0 to 100 scale",0
same,Kochia plant response rating (0-100),kochia (Bassia scoparia) [18]; [29],0
same,"Oat, Wild plant response rating","[19]; 16 g ai/ha, 0 to 100 scale",0
same,"Oat, Wild plant response rating (0-100)",[19]; [29],0
same,Ragweed plant response rating,"[20]; 16 g ai/ha, 0 to 100 scale",0
same,Ragweed plant response rating (0-100),[20]; [29],0
same,"Pigweed, Palmer plant response rating","[21]; 16 g ai/ha, 0 to 100 scale",80
same,"Pigweed, Palmer plant response rating (0-100)",[21]; [29],100
same,"Ryegrass, Italian plant response rating","[22]; 16 g ai/ha, 0 to 100 scale",0
same,"Ryegrass, Italian plant response rating (0-100)",[22]; [29],60
same,Wheat plant response rating,"[23]; 16 g ai/ha, 0 to 100 scale",40
same,Wheat plant response rating (0-100),[23]; [29],80
same,"Foxtail, Green plant response rating","[24]; 16 g ai/ha, 0 to 100 scale",0
same,"Foxtail, Green plant response rating (0-100)",[24]; [29],90
same,Soybean plant response rating,"soybean (Glycine max) [25]; 16 g ai/ha, 0 to 100 scale",10
same,Soybean plant response rating (0-100),soybean (Glycine max) [25]; [29],0
same,Blackgrass plant response rating,"[26]; 16 g ai/ha, 0 to 100 scale",0
same,Blackgrass plant response rating (0-100),[26]; [29],30
